Test results as given in patent US20250176599A1, “FLAVOR COMPOSITION AND FOOD AND BEVERAGE” (TAKASAGO INTERNATIONAL CORPORATION, priority 2021, published 2025).

Experiments:
[1] = Sensory evaluation of degradation component-added mayonnaise II (1,5-octadien-3-one 5 ppm)
Protocol: To commercially available mayonnaise (“Kewpie Mayonnaise” manufactured by Kewpie Corporation), each degradation component was added to prepare degradation component-added mayonnaises I and II at the concentrations listed in Table 20. To these degradation component-added mayonnaises, oleic acid was added at the concentrations listed in Table 21 to confirm the intensity of the off-flavor (masking effect) and the intensity of the masking components (impact on the flavor of the mayonnaise itself) for each sample.
Six experienced panelists were selected to conduct a sensory evaluation similar to that of Example 1.
To the degradation component-added mayonnaise II listed in Table 20, menthyl 3-hydroxybutyrate was added at the concentrations listed in Table 22 to confirm the intensity of the off-flavor (masking effect) and the intensity of the masking component (impact on the flavor of the mayonnaise itself) for each sample.

[2] = Sensory evaluation of degradation component-added shortening II (1,5-octadien-3-one 1 ppb); conditions: average panel score
Protocol: (§1) To commercially available shortening (“Pampas LTR30” manufactured by Fuji Oil Co., Ltd.), each degradation component was added to prepare degradation component-added shortenings I and II at the concentrations listed in Table 17. To these degradation component-added shortenings, β-ionone was added at the concentrations listed in Table 18 to confirm the intensity of the off-flavor (masking effect) and the intensity of the masking components (impact on the flavor of the shortening itself) for each sample.
(§2) Eight experienced panelists were selected to conduct a sensory evaluation similar to that of Example 1.
(§3) The same method as in Example 16 was used to confirm the intensity of the off-flavor (masking effect) derived from unsaturated fatty acids by β-damascenone and the intensity of the masking components (impact on the flavor of the shortening itself).

[3] = Overall conclusion of the sensory evaluation across shortenings I and II
Protocol: as §1, §2, §3

[4] = Sensory evaluation of degradation component-added shortening I ((E)-2-octenal 500 ppb); conditions: average panel score
Protocol: as §1
Eight experienced panelists were selected to conduct a sensory evaluation similar to that of Example 1. […]

CC(O)CC(=O)OC1CC(C)CCC1C(C)C (stereo not shown) [menthyl 3-hydroxybutyrate]
concentration that masks the off-flavor and does not affect the flavor of the mayonnaise itself, lower limit [1]: ≥ 100 ppt | concentration that masks the off-flavor and does not affect the flavor of the mayonnaise itself, upper limit [1]: ≤ 100 ppm | Masking Component Intensity ([1]; 1 ppb added): 0.2 | Off-Flavor Intensity ([1]; 1 ppb added): 3.0 | Masking Component Intensity ([1]; 1 ppm added): 0.6 | Off-Flavor Intensity ([1]; 1 ppm added): 0.8 | Masking Component Intensity ([1]; 10 ppb added): 0.2 | Off-Flavor Intensity ([1]; 10 ppb added): 2.2 | Masking Component Intensity ([1]; 10 ppm added): 1.0 | Off-Flavor Intensity ([1]; 10 ppm added): 0.6 | Masking Component Intensity ([1]; 50 ppm added): 1.6 | Off-Flavor Intensity ([1]; 50 ppm added): 0.6 | Masking Component Intensity ([1]; 100 ppb added): 0.4 | Off-Flavor Intensity ([1]; 100 ppb added): 1.6 | Masking Component Intensity ([1]; 100 ppm added): 2.0 | Off-Flavor Intensity ([1]; 100 ppm added): 0.6 | Masking Component Intensity ([1]; 100 ppt added): 0.2 | Off-Flavor Intensity ([1]; 100 ppt added): 3.0

C/C=C/C(=O)C1=C(C)C=CCC1(C)C [β-Damascenone, β-damascenone]
Masking Component Intensity ([2]; 1 ppb added): 2.5 | Off-Flavor Intensity ([2]; 1 ppb added): 2.3 | Masking Component Intensity ([2]; 1 ppt added): 0.9 | Off-Flavor Intensity ([2]; 1 ppt added): 3.4 | Masking Component Intensity ([2]; 10 ppb added): 2.6 | Off-Flavor Intensity ([2]; 10 ppb added): 2.0 | Masking Component Intensity ([2]; 10 ppt added): 1.3 | Off-Flavor Intensity ([2]; 10 ppt added): 3.0 | Masking Component Intensity ([2]; 100 ppt added): 1.9 | Off-Flavor Intensity ([2]; 100 ppt added): 2.5 | concentration that masks the off-flavor and does not affect the flavor of the shortening itself, upper limit [3]: ≤ 10 ppb | Masking Component Intensity ([4]; 1 ppb added): 2.9 | Off-Flavor Intensity ([4]; 1 ppb added): 1.8 | Masking Component Intensity ([4]; 1 ppt added): 1.1 | Off-Flavor Intensity ([4]; 1 ppt added): 3.1 | Masking Component Intensity ([4]; 10 ppb added): 3.1 | Off-Flavor Intensity ([4]; 10 ppb added): 1.1 | Masking Component Intensity ([4]; 10 ppt added): 1.5 | Off-Flavor Intensity ([4]; 10 ppt added): 2.6 | Masking Component Intensity ([4]; 100 ppt added): 2.1 | Off-Flavor Intensity ([4]; 100 ppt added): 2.3

CC(=O)/C=C/C1=C(C)CCCC1(C)C [β-Ionone, β-ionone]
Masking Component Intensity ([2]; 1 ppb added): 1.9 | Off-Flavor Intensity ([2]; 1 ppb added): 2.4 | Masking Component Intensity ([2]; 1 ppt added): 0.4 | Off-Flavor Intensity ([2]; 1 ppt added): 3.6 | Masking Component Intensity ([2]; 10 ppb added): 2.3 | Off-Flavor Intensity ([2]; 10 ppb added): 2.0 | Masking Component Intensity ([2]; 10 ppt added): 0.9 | Off-Flavor Intensity ([2]; 10 ppt added): 3.4 | Masking Component Intensity ([2]; 100 ppt added): 1.5 | Off-Flavor Intensity ([2]; 100 ppt added): 2.8 | concentration that masks the off-flavor and does not affect the flavor of the shortening itself, lower limit [3]: ≥ 10 ppt | concentration that masks the off-flavor and does not affect the flavor of the shortening itself, upper limit [3]: ≤ 10 ppb | Masking Component Intensity ([4]; 1 ppb added): 2.1 | Off-Flavor Intensity ([4]; 1 ppb added): 1.5 | Masking Component Intensity ([4]; 1 ppt added): 0.6 | Off-Flavor Intensity ([4]; 1 ppt added): 3.1 | Masking Component Intensity ([4]; 10 ppb added): 2.6 | Off-Flavor Intensity ([4]; 10 ppb added): 1.1 | Masking Component Intensity ([4]; 10 ppt added): 1.1 | Off-Flavor Intensity ([4]; 10 ppt added): 2.6 | Masking Component Intensity ([4]; 100 ppt added): 1.8 | Off-Flavor Intensity ([4]; 100 ppt added): 2.4
